We go through four molecules from article PMC12019583 (Journal of Neurochemistry, 2025).

In general, IC50 refers to the concentration at which inhibition is half-maximal. In general, Ki refers to the equilibrium dissociation constant of an inhibitor or competing ligand from its target.

Data set [1] addresses T1, human SERT (Homo sapiens, UniProt P31645). The data set is described as follows: Whole-cell patch-clamp recordings of 5-HT-induced currents in HEK293 cells expressing human SERT. It is filed as cell-based. The settings on record: for effect on serotonin-induced inwardly directed current: 10 μM, 5-HT 10 μM. How it is done:
Whole‐cell patch‐clamp recordings were performed as recently described (Niello et al. [2023]). HEK293 cells stably expressing wild‐type GFP‐tagged human SERT were seeded at low density on poly‐D‐lysine‐coated dishes. Twenty hours after seeding, these cells were subjected to patch‐clamp recordings in the whole‐cell configuration. […] The internal solution in the patch pipette contained 133 mM potassium gluconate (CH2OH(CHOH)4COOK), 5.9 mM NaCl, 1 mM CaCl2, 0.7 mM MgCl2, 10 mM HEPES, 10 mM EGTA (pH adjusted to 7.2 with KOH). Drugs were applied using a 4‐tube ALA perfusion manifold (NPI Electronic GmbH, Germany) and a DAD‐12 superfusion system (Adams & List, Westbury, NY, USA) allowing for complete solution exchange around the cells within 100 ms. Currents were recorded via an Axopatch 200B amplifier (MDS Analytical Technologies, Sunnyvale, California) and analyzed using Clampfit 10.2 software. Passive holding currents were subtracted, and the traces were filtered using a 100 Hz digital Gaussian low‐pass filter.
(§1) The symbols represent three to four experiments performed in triplicate on different days, the error bars denote standard deviation. The red curves indicate the conditions promoting the optical switching (at a wavelength of 365 nm), the black curves indicate standard illumination. […] The rate of current recovery upon removal of (Z)‐9 from the bath solution (i.e., k off) was estimated by a fit of a monoexponential function to the current trace (see solid red line). […] Panel d: Viability assay employing trypan blue. […] PAR = paroxetine.

The target in another data set is T2, human GAT3 (Homo sapiens, UniProt P48066).
T2 construct: expressed in transfected cells; host or cells: HEK293
T2 sequence (P48066 1-632): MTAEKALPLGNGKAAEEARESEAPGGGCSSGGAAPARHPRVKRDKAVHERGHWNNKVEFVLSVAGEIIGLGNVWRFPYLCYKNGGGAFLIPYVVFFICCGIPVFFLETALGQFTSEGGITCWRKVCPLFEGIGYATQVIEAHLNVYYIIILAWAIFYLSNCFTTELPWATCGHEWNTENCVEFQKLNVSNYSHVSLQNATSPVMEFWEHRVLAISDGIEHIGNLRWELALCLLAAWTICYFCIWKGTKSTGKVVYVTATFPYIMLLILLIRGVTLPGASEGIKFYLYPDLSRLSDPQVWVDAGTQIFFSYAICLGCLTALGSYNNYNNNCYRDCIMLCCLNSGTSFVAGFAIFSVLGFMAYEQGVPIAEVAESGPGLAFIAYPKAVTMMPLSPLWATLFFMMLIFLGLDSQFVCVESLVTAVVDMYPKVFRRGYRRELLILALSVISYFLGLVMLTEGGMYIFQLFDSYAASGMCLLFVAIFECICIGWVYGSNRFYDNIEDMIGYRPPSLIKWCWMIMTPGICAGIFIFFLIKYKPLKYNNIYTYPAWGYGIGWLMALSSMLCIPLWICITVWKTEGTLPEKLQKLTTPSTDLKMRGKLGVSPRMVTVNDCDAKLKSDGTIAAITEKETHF
The data set is described as follows: Uptake inhibition of [3H]GABA in HEK293 cells expressing hGAT3. It is filed as cell-based. As to conditions: for IC50: [3H]GABA uptake, read-out: hGAT3 IC50 ± SD. As for the experimental part: (§2) The cells were cultured in a humidified atmosphere (37°C, 5% CO2) on standard plastic culture ware. To maintain the selection pressure for the stable cell lines, 150 units/mL Geneticin was added. Cells were typically not passaged over 25 times.
(§3) After 10 min, the preincubation solution was replaced by 0.05 mL/well KHB still containing the substance of interest and tritiated substrate additionally (50 nM [^3H]MPP^+ for the YhDAT; 100 nM [^3H]5HT for the YhSERT; 30 nM [^3H]GABA for the YhGAT1, hGAT3 and YrGAT1 and 20 nM [^3H]MPP^+ for the hNET) maintaining UV light treatment/no additional light treatment. Substrate uptake was stopped after 1 min (for [^3H]5HT) or 3 min (for [^3H]GABA and [^3H]MPP^+), respectively, by exchange of the substrate‐containing buffer with 0.2 mL/well ice‐cold KHB. The KHB was aspirated immediately, and the cells were lysed in 0.2 mL 1% SDS, transferred to 6‐mL scintillation vials, and assayed for [^3H] content by liquid scintillation counting.
(§4) Data from uptake experiments were subjected to non‐linear, least squares curve fitting to equations for a rectangular hyperbola using a Marquardt–Levenberg algorithm (GraphPad Prism v.9).

For another data set, the target named is T3, rat GAT1 (Rattus norvegicus, UniProt P23978).
T3 construct: expressed in transfected cells
Put plainly: Uptake inhibition of [3H]GABA in HEK293 cells expressing YrGAT1. It is filed as cell-based. As to conditions: for IC50: [3H]GABA uptake, read-out: rGAT IC50 ± SD. How it is done: as §2, §3, §4

Another data set addresses human DAT (Homo sapiens, UniProt Q01959). The data set is described as follows: Uptake inhibition of [3H]MPP+ in HEK293 cells stably expressing YhDAT. The format is cell-based. The settings on record: for loss in affinity at DAT in comparison with paroxetine (factor): basal light; for effect of optical switching on inhibitory potency at DAT: basal vs 365 nm; for IC50: [3H]MPP+ uptake, read-out: DAT IC50 ± SD. How it is done:
as §2, §3, §4

Data set [2] in a line: Thermal (Z)/(E) isomerization half-life by UV/Vis. It is filed as physicochemical. As to conditions: (Z)-isomer; 50 μM in dry DMSO, 23 °C; read-out: half-life time of thermal (Z)/(E) isomerization (converted). How it is done:
The rough experimental half-life time of the ( Z)-isomer of compound 9 was determined on a UV-1800 UV/Vis spectrophotometer from Shimadzu at 23 °C. A 50 μM sample of the compound in dry DMSO was irradiated with 365 nm for 5 seconds using the respective OmniCure® LED head at 100% power. Once the highest possible (Z)-isomer content was reached, the absorption at 331 nm, the ( E)-isomer’s absorption maximum l max, was regularly measured over the course of 12 hours. […]
of the thermal ( Z)/(E) isomerization.
A mathematical fitting function was used to linearize the obtained absorption data over time according to Equation S1.
AAllllllllllllllllllll = ln (AAmmllmm − AAtt )
Equation S1. Linear fit used for absorption AA .
The linearized absorption value gained by equation S1 was plotted over time and a linear fit function was applied. The obtained fit function gave the rate constant k as its slope value.
Next, the half- life time was calculated according to Equation S2. The resulting graph is shown […]
Equation S2. Calculation of half-life ττ1/2 time from rate constant kk .
This method of thermal half- life time determination wa s sufficiently precise for the […]
been shown (Singer et al, 2023) to yield similar results as compiling an Eyring plot for half-life time determination without the compound relax ing back to nearly 100% (E)-isomer.
Graph S1. […]

Another data set has as its system HEK293 cells. Put plainly: Viability assay employing trypan blue. The settings on record: dose-dependent, up to high concentrations, DMSO positive control. It is filed as cell-based, human.
Description: as §1

The target in the next data set is T4, human GAT1 (Homo sapiens, UniProt P30531).
T4 construct: expressed in transfected cells; host or cells: HEK293
T4 sequence (P30531 whole entry): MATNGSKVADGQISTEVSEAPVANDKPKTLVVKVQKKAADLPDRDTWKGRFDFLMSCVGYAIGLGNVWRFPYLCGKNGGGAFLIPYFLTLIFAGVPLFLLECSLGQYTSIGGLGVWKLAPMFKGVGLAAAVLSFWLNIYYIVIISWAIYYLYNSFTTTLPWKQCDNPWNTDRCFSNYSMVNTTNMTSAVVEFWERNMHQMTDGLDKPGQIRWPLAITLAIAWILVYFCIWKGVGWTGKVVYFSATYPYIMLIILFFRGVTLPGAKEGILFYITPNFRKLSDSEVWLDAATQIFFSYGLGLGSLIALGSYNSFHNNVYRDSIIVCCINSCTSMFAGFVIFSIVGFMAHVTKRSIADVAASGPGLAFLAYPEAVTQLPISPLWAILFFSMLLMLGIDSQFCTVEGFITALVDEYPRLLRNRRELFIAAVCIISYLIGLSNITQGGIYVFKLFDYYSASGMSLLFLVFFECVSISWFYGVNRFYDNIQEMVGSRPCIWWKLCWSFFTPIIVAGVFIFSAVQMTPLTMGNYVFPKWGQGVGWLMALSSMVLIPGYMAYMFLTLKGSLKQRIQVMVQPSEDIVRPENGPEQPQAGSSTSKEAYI
Put plainly: Uptake inhibition of [3H]GABA in HEK293 cells expressing YhGAT1. The format is cell-based. As to conditions: for IC50: [3H]GABA uptake, read-out: hGAT1 IC50 ± SD. As for the experimental part: as §2, §3, §4

The nature of data set [3]: UHPLC-TOF-MS quantification of (E)/(Z) isomer content in photostationary state. The settings on record: after irradiation 365 nm 30 s; 10 μM; several solvents (DMSO and aqueous). It is filed as physicochemical. As for the experimental part: Additionally, quantification measurements with UHPLC‐TOF‐MS were conducted to determine the efficiency of the (E) to (Z) isomerization of azo‐paroxetine. […] Moreover, biological uptake inhibition assay conditions were mimicked during the switching experiments by choosing respective solvents and sample concentrations. Samples representing the dark state were taken before irradiation, samples representing the (Z)‐state were obtained after irradiation with […] (intensity 600 mW/cm^2 10 mm focusing lens, λ 365 nm) for 30 s. […] Bandara and Burdette [2012]). […] Switching concentration 10 μM, concentration in UHPLC‐TOF‐MS sample 1 μM, UHPLC‐TOF‐MS sample preparation with water/acetonitrile 90/10.

A further data set concerns the target hNET (Homo sapiens, UniProt P23975). Put plainly: Uptake inhibition of [3H]MPP+ in HEK293 cells stably expressing hNET. It is filed as cell-based. The settings on record: for loss in affinity at NET in comparison with paroxetine (factor): basal light; for reduction in IC50 by optical switching at NET: basal vs 365 nm; for IC50: [3H]MPP+ uptake, read-out: NET IC50 ± SD. As for the experimental part:
as §2, §3, §4

In data set [4] the target is T1, human SERT. The data set is described as follows: Uptake inhibition of [3H]5-HT in HEK293 cells stably expressing YhSERT. It is filed as cell-based. As to conditions: for IC50: [3H]5-HT uptake, read-out: SERT IC50 ± SD. As for the experimental part: as §2, §3, §4
A further data set deals with NET. On the set-up: method as in Kristensen et al. [2011]; Owens et al. [2001]. The settings on record: ref Kristensen et al. [2011]; Owens et al. [2001]; cited from earlier work.

“And” between values parts separate entries of the source, which are not always exact repeats. Identical values can stand only once. Like-named read-outs stand apart in the source and are kept apart here.

Chain of hNET (P23975 whole entry): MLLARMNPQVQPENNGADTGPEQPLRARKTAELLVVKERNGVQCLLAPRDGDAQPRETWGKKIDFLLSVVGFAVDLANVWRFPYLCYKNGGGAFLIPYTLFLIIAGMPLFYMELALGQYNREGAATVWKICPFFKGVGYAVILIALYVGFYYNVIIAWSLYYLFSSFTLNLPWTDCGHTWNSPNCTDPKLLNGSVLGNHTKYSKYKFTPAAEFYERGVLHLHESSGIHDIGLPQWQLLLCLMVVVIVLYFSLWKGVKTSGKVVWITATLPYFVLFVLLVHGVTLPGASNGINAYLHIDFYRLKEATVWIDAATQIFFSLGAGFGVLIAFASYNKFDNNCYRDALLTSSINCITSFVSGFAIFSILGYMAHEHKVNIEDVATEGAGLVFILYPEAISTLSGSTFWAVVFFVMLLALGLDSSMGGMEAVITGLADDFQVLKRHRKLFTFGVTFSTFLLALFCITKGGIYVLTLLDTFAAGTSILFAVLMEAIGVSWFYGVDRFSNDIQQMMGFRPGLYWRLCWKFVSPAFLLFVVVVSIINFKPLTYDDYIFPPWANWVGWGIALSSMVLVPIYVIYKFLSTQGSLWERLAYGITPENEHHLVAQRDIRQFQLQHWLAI
Chain of human DAT (Q01959 whole entry): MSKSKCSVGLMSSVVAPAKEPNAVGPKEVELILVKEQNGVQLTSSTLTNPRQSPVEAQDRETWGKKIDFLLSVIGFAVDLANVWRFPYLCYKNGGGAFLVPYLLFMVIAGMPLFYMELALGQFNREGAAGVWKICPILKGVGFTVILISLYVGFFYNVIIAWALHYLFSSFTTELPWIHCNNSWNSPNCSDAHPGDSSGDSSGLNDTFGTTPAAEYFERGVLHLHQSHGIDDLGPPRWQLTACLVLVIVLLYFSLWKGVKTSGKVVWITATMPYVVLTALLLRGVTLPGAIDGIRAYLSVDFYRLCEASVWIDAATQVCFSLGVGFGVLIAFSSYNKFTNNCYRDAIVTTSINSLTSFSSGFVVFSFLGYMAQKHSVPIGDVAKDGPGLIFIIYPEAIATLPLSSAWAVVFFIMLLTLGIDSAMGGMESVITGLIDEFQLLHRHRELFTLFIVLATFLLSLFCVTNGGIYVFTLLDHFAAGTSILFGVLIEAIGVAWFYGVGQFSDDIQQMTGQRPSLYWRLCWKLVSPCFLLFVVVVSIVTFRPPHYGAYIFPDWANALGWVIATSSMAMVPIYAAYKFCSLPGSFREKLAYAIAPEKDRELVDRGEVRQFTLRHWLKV
T1 sequence (P31645 whole entry, the tested form may be a part): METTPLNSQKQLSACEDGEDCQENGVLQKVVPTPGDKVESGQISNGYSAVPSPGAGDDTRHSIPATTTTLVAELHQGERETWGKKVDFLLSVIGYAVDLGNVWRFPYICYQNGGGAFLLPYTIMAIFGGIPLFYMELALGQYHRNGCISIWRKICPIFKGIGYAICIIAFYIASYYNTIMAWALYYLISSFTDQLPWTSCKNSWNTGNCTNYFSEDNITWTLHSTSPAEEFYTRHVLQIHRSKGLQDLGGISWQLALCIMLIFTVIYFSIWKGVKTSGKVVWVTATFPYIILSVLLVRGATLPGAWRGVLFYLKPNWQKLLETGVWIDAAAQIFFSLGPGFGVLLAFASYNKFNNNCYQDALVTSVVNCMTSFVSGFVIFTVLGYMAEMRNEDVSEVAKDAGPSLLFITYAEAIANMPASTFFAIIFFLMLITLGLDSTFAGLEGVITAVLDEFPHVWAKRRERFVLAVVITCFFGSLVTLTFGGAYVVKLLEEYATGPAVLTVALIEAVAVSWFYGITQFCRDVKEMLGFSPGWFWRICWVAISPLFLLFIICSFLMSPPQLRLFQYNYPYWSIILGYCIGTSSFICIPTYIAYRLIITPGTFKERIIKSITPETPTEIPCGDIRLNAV

Turning to `c1ccc(/N=N/c2ccc([C@@H]3CCNC[C@H]3COc3ccc4c(c3)OCO4)cc2)cc1` [(E)‐azo‐paroxetine (9)], the “effect on serotonin-induced inwardly directed current” value at human SERT [1] ((E)-isomer, standard light) is on record as “marginal blockade”.
On to `c1ccc(/N=N/c2ccc([C@@H]3CCNC[C@H]3COc3ccc4c(c3)OCO4)cc2)cc1` [Azo‐paroxetine (9)], for which the IC50 at human GAT3 (λ 365 nm) was found to be 90.5 ± 24.4 µM; at human GAT3 (λ basal), 55 ± 16.4 µM; on rat GAT1 (λ 365 nm) it was 126 ± 20.6 µM; at rat GAT1 (λ basal), 88.9 ± 11.8 µM; at human DAT (λ 365 nm), 3.77 ± 0.79 µM; at human DAT (λ basal) it was 6.33 ± 2.06 µM. Besides, the IC50 on human GAT1 (λ 365 nm) was determined as 107 ± 15 µM; at human GAT1 (λ basal) it was 80.8 ± 21.6 µM; on hNET (λ 365 nm), 5.41 ± 3.32 µM; on hNET (λ basal), 15.4 ± 4.04 µM; at human SERT [4] (λ 365 nm (PSS, mainly (Z)-isomer)), 0.76 ± 0.18 µM; at human SERT [4] (λ basal (standard light, (E)-isomer)), 9.23 ± 3.06 µM. For the same molecule, on human SERT [1] (HEK293, photoequilibrated (365 nm) state, n = 5, read-out: off-rate (k off)), the koff is 0.18 ± 0.031 s⁻¹. For the same molecule, the “effect on serotonin-induced inwardly directed current” value at human SERT [1] (photoequilibrated (365 nm)) is “completely abolished the inwardly directed current”. Also, the “improvement of affinity at rat GAT1 relative to paroxetine” value on rat GAT1 is “around two to three‐fold”. The entries for the “loss in affinity at DAT in comparison with paroxetine (factor)” value at human DAT (listed as azo‐paroxetine) and on human DAT (listed as azo‐paroxetine (9)) were ~ 3.7 and 2 to 5, respectively. Besides, the “effect of optical switching on inhibitory potency at DAT” value is reported as 2 to 3 fold at human DAT (listed as azo‐paroxetine) and 1.7 fold on human DAT (listed as azo‐paroxetine (9)). Besides, the half-life at 50 μM in data set [2] was 156 h. Besides, in the data set with HEK293 cells (listed as azo‐paroxetine), the “cellular toxicity effects (trypan blue viability)” value is given as “did not find any significant toxic impact”. The “(Z)-isomer content in photostationary state” value in data set [3] was 83%–87% and 83%. In addition, the “loss in affinity at NET in comparison with paroxetine (factor)” value is ~ 5 at hNET (listed as azo‐paroxetine) and 2 to 5 on hNET (listed as azo‐paroxetine (9)). The “reduction in IC50 by optical switching at NET” value is 2 to 3 fold on hNET (listed as azo‐paroxetine) and “~threefold” on hNET (listed as azo‐paroxetine (9)). The “loss in affinity at SERT in comparison with parent compound paroxetine (factor)” value on human SERT [4] (basal light) worked out at 171 fold.
For `Fc1ccc([C@@H]2CCNC[C@H]2COc2ccc3c(c2)OCO3)cc1` [Paroxetine, paroxetine, reference compound], the IC50 on human GAT3 (λ basal) is 51 ± 3.7 µM; at rat GAT1 (λ basal), 264 ± 140 µM; on human GAT1 (λ basal), 122 ± 81 µM. In addition, the Ki on NET was 0.156 ± 0.029 µM.
With azobenzene [reference compound], on human GAT3 (up to 1 mM), the “inhibition of GABA uptake at human GAT3” value is recorded as “more than 60%”. Moreover, the “inhibition of GABA uptake at rat GAT1” value on rat GAT1 ((E)-configuration) is on record as “comparable to the value of the human GAT1”. The “cellular toxicity effects (trypan blue viability)” value in the data set on HEK293 cells is given as “neither azo‐paroxetine (9) nor azobenzene”. The “inhibition of GABA uptake at human GAT1” value on human GAT1 ((E)-configuration, up to 1 mM) is “up to 40%”. For the same molecule, the “inhibitory effect on [3H]5-HT uptake at human SERT” value on human SERT [4] (concentrations up to 1 mM, basal and 365 nm) is “could not really observe any significant inhibitory effects”.
